According to patent publication US11617804B2, “Hyaluronic acid-based nanoparticles as biosensors for imaging-guided surgery and drug delivery vehicles and methods associated therewith” (Wake Forest University, priority 2014, dated 2023):

How the values were obtained:
ectopic 4T1 breast tumor = assay: ICG detection in tumor with the fluorescence image-guided surgical system; assay type: in vivo, mouse; details: 0.357 mg/kg ICG via tail vein, 24 hours, laser excitation directed at the tumor
Method: In this experiment, 0.357 mg/kg ICG was systemically administered via a tail vein. After 24 hours, the mouse was euthanized and tumor fluorescence enhancement was assessed by using the fluorescence image-guided surgical system method. When the laser excitation source of fluorescence image-guided surgical system method is directed off the tumor (FIG. 9A,B), no fluorescence enhancement of the tumor is seen. […] This example uses a breast tumor model.

MDA-MB-231 tumors = assay: In vivo testing, MDA-MB-231-iRFP xenograft: imaging, image-guided tumor removal, relative biodistribution; parameters: species or system female nude mice; details: I.V. injection of 10 nmol ICG (free or fHNP), 24 hours
Method: Twelve to fourteen week old female nude mice (Jackson Labs) were injected subcutaneously with 2×10^6) MDA-MB-231 cells in 50/50 media/matrigel. MDA-MB-231 cells were transfected with NIR fluorescent protein (iRFP). When the tumors reached 500-1000 mm^3, 10 nmol ICG or fHNP (10 wt % PBA was the hydrophobic ligand in this case) was injected into a tail vein. After 24 hours the mice were euthanized and imaged whole using a LI-COR Pearl Impulse system, which has a “700 nm” channel that can detect iRFP-labeled cell and an “800 nm” channel that can detect ICG or Cy7.5. Mice then underwent image-guided tumor removal with the fluorescence image-guided surgical system method. First, skin was removed to expose the breast tumor xenograft. […] Mice were then re-imaged on the LI-COR system to compare area identified as tumor by the fluorescence image-guided surgical system with iRFP labeled tumors. This was followed by necropsy, further image acquisition for the overall estimation of relative ICG biodistribution, and preparation of tissues for histology.

CC1(C)C(/C=C/C=C/C=C/C=C2\N(CCCCS(=O)(=O)O)c3ccc4ccccc4c3C2(C)C)=[N+](CCCCS(=O)(=O)[O-])c2ccc3ccccc3c21 [ICG, Indocyanine green]
Tumor fluorescence enhancement (ectopic 4T1 breast tumor): strong fluorescence signal | Tumor signal enhancement (MDA-MB-231 tumors): tumor signal enhancement
